ChEMBL document CHEMBL5614371, “Quinazolines annelated at the N(3)-C(4) bond: Synthesis and biological activity” (Eur J Med Chem, 2024)
In brackets after ≈: the same amount, converted by molar mass.

Legend:
Streptococcus pyogenes [1] = assay: microbe, parasite or virus in culture; conditions: ATCC 19615
Staphylococcus aureus [2] = assay: microbe, parasite or virus in culture; conditions: ATCC 25923
Aspergillus niger = assay: microbe, parasite or virus in culture
Trichoderma viride = assay: microbe, parasite or virus in culture
Bacillus subtilis = assay: microbe, parasite or virus in culture
Klebsiella pneumoniae = assay: microbe, parasite or virus in culture
Staphylococcus aureus [3] = assay: microbe, parasite or virus in culture
Escherichia coli = assay: microbe, parasite or virus in culture
Streptococcus pyogenes [4] = assay: microbe, parasite or virus in culture
Candida albicans = assay: microbe, parasite or virus in culture
HCT-116 [5] = assay: cells; conditions: Homo sapiens, HCT-116, 48 h
HepG2 [6] = assay: cells; conditions: Homo sapiens, HepG2, 48 h
[7] = test system: Mycobacterium tuberculosis; assay: microbe, parasite or virus in culture; conditions: H37Rv ATCC 27294, 168 h
[8] = test system: Mycobacterium tuberculosis; assay: microbe, parasite or virus in culture; conditions: H37Rv
A549 [9] = assay: cells; conditions: Homo sapiens, A549, 48 h
HCT-116 [10] = assay: cells; conditions: Homo sapiens, HCT-116, 24 h
HepG2 [11] = assay: cells; conditions: Homo sapiens, HepG2, 24 h
MCF7 [12] = assay: cells; conditions: Homo sapiens, MCF7, 24 h
A549 [13] = assay: cells; conditions: Homo sapiens, A549, 48 h; remark: listed apart in the source
MCF7 [14] = assay: cells; conditions: Homo sapiens, MCF7, 48 h
NCI-H1299 [15] = assay: cells; conditions: Homo sapiens, NCI-H1299, 48 h
MDA-MB-231 [16] = assay: cells; conditions: Homo sapiens, MDA-MB-231, 48 h
HCT-116 [17] = assay: cells; conditions: Homo sapiens, HCT-116, 48 h; remark: listed apart in the source
MCF7 [18] = assay: cells; conditions: Homo sapiens, MCF7, 48 h; remark: listed apart in the source
HCT-116 [19] = assay: cells; conditions: Homo sapiens
MCF7 [20] = assay: cells; conditions: Homo sapiens
MCF7 [21] = assay: cells; conditions: Homo sapiens; remark: listed apart in the source
HepG2 [22] = assay: cells; conditions: Homo sapiens
HCT-116 [23] = assay: cells; conditions: Homo sapiens; remark: listed apart in the source
MCF7 [24] = assay: cells; conditions: Homo sapiens, MCF7, 48 h; remark: listed apart in the source
HepG2 [25] = assay: cells; conditions: Homo sapiens, HepG2, 48 h; remark: listed apart in the source
HepG2 [26] = assay: cells; conditions: Homo sapiens; remark: listed apart in the source
HCT-116 [27] = assay: cells; conditions: Homo sapiens; remark: listed apart in the source
NCI-H1299 [28] = assay: cells; conditions: Homo sapiens, NCI-H1299, 48 h; remark: listed apart in the source
MDA-MB-231 [29] = assay: cells; conditions: Homo sapiens, MDA-MB-231, 48 h; remark: listed apart in the source
A549 [30] = assay: cells; conditions: Homo sapiens, A549, 48 h; remark: listed apart in the source
MCF7 [31] = assay: cells; conditions: Homo sapiens, MCF7, 48 h; remark: listed apart in the source
HepG2 [32] = assay: cells; conditions: Homo sapiens, HepG2, 48 h; remark: listed apart in the source
MCF7 [33] = assay: cells; conditions: Homo sapiens, MCF7, 48 h; remark: listed apart in the source
HepG2 [34] = assay: cells; conditions: Homo sapiens, HepG2, 48 h; remark: listed apart in the source
NCI-H1299 [35] = assay: cells; conditions: Homo sapiens
cells = conditions: Homo sapiens, Breast carcinoma cell
HCT-116 [36] = assay: cells; conditions: Homo sapiens, HCT-116, 72 h
A549 [37] = assay: cells; conditions: Homo sapiens, A549, 72 h
U-87 MG = assay: cells; conditions: Homo sapiens, 72 h

SMILES: Cc1ccc(S(=O)(=O)Oc2ccc(-c3nc4ccccc4c4nc(=S)[nH]n34)cc2)cc1
- MIC (Streptococcus pyogenes [1]): 6.25 µg/mL (≈ 13.9 µM)
- MIC (Staphylococcus aureus [2]): 3.12 µg/mL (≈ 6.97 µM)

SMILES: Nc1ccccc1-c1cc2ccccc2[nH]1
- MIC (Aspergillus niger): 2.5 µg/mL (≈ 12 µM)
- MIC (Trichoderma viride): 2.5 µg/mL (≈ 12 µM)
- MIC (Bacillus subtilis): 2.5 µg/mL (≈ 12 µM)
- MIC (Klebsiella pneumoniae): 2.5 µg/mL (≈ 12 µM)
- MIC (Staphylococcus aureus [3]): 2.5 µg/mL (≈ 12 µM)
- MIC (Escherichia coli): 2.5 µg/mL (≈ 12 µM)
- MIC (Streptococcus pyogenes [4]): 2.5 µg/mL (≈ 12 µM)
- MIC (Candida albicans): 2.5 µg/mL (≈ 12 µM)

SMILES: Oc1ccc(/C=N/Nc2nc3ccccc3c3nncn23)cc1
- IC50 (HCT-116 [5]): 48.5 µM
- IC50 (HepG2 [6]): 4.43 µM

SMILES: CCCc1nc2cc(C)ccc2c2nc3ccccc3n12
- IC50 [7]: 0.4 µg/mL (≈ 1.45 µM)
- IC50 [8]: 12.5 µg/mL (≈ 45.4 µM)

SMILES: FC(F)(F)c1nc2ccccc2c2cc3cc(Cl)ccc3n12
- IC50 (A549 [9]): 30.7 µM

SMILES: CN(C)c1ccc(/C=N/NC(=O)c2ccc(Nc3nc4ccccc4c4nncn34)cc2)cc1
- IC50 (HCT-116 [10]): 8.27 µM
- IC50 (HepG2 [11]): 7.91 µM

SMILES: CCOC(=O)c1ccc2c3cc(Cl)c(Br)cc3ncn2c1=O
- IC50 (MCF7 [12]): 3.44 µg/mL (≈ 9.01 µM)

SMILES: c1ccc2cc(-c3cc4c5ccccc5ncn4n3)ccc2c1
- GI50 (A549 [13]): 1.98 µM
- GI50 (MCF7 [14]): 2.03 µM

SMILES: Oc1ccc(-c2nc3ccccc3c3cc(-c4ccccc4)nn23)cc1
- GI50 (NCI-H1299 [15]): 2.97 µM
- GI50 (MDA-MB-231 [16]): 1.95 µM

SMILES: O=c1nc(-c2ccc(Nc3nc4ccccc4c4nncn34)cc2)cc(-c2ccccc2)[nH]1
- IC50 (HCT-116 [17]): 11.8 µM

SMILES: Clc1ccc2c(c1)cc1c3ccccc3nc(-c3ccccc3)n21
- IC50 (A549 [9]): 30.7 µM

SMILES: COc1ccc(-c2cc(-c3ccc(Nc4nc5ccccc5c5nncn45)cc3)nc(=O)[nH]2)cc1
- IC50 (HCT-116 [17]): 11.8 µM

SMILES: Cc1ccc(-c2nc3ccccc3c3cc4ccccc4n23)cc1
- IC50 (A549 [9]): 30.7 µM

SMILES: O=[N+]([O-])c1ccc(-c2nc3ccccc3c3cc4ccccc4n23)cc1
- IC50 (A549 [9]): 30.7 µM

SMILES: c1ccc(-c2nc3ncccc3c3cc4ccccc4n23)cc1
- IC50 (A549 [9]): 30.7 µM

SMILES: N#Cc1ccc2c3cc(Cl)c(Br)cc3ncn2c1=O
- IC50 (MCF7 [18]): 4.1 µg/mL (≈ 12.3 µM)

SMILES: c1ccc(-c2nc3ccccc3c3cccn23)cc1
- IC50 (A549 [9]): 30.7 µM

SMILES: CN(C)c1nc2ccccc2c2nncn12
- IC50 (HCT-116 [19]): 22.5 µM

SMILES: O=C(N/N=C/c1c(Cl)cccc1Cl)c1ccc(Nc2nc3ccccc3c3nncn23)cc1
- IC50 (HCT-116 [10]): 7.41 µM
- IC50 (HepG2 [11]): 5.42 µM

SMILES: CCOC(=O)c1nn2c(NC(C)(C)CC(C)(C)C)nc3ccccc3c2c1C(=O)OCC
- GI50 (A549 [13]): 1.1 µM
- GI50 (NCI-H1299 [15]): 1.29 µM

SMILES: FC(F)(F)c1ccc2c(c1)cc1c3ccccc3nc(-c3ccccc3)n21
- IC50 (A549 [9]): 30.7 µM

SMILES: O=C(/C=C\c1nc2ccccc2c2nc3ccccc3n12)c1ccc(Cl)c(Cl)c1
- IC50 (MCF7 [20]): 61 µg/mL (≈ 146 µM)
- IC50 (MCF7 [21]): 61 µg/mL (≈ 146 µM)

SMILES: Cc1ccc(-c2nc3ccccc3c3cc4cc(Cl)ccc4n23)cc1
- IC50 (A549 [9]): 30.7 µM

SMILES: O=C(N/N=C/c1ccccc1O)c1ccc(Nc2nc3ccccc3c3nncn23)cc1
- IC50 (HCT-116 [10]): 7.1 µM
- IC50 (HepG2 [11]): 7.42 µM

SMILES: Cc1c(O)n2cnc3cc(Br)c(Cl)cc3c2nc1=O
- IC50 (MCF7 [18]): 3.5 µg/mL (≈ 10.3 µM)

SMILES: Clc1cccc(Cl)c1/C=N/Nc1nc2ccccc2c2nncn12
- IC50 (HepG2 [22]): 4.43 µM
- IC50 (HCT-116 [23]): 5.22 µM

SMILES: N#CC1=CC=C2c3cc(Cl)c(Br)cc3N=CN2C1N (configuration not stated)
- IC50 (MCF7 [18]): 3.45 µg/mL (≈ 10.3 µM)

SMILES: Cc1ccc(-c2cc(-c3ccc(Nc4nc5ccccc5c5nncn45)cc3)nc(=O)[nH]2)cc1
- IC50 (HCT-116 [17]): 11.8 µM

SMILES: COc1ccc(-c2nc3ccccc3c3cc4ccccc4n23)cc1
- IC50 (A549 [9]): 30.7 µM

SMILES: Clc1ccc2nc(-c3ccccc3)n3c4ccccc4cc3c2c1
- IC50 (A549 [9]): 30.7 µM

SMILES: Clc1cc2c(cc1Br)ncn1cnnc21
- IC50 (MCF7 [24]): 3.39 µg/mL (≈ 12 µM)

SMILES: COc1ccc(C2CC(c3ccc(Nc4nc5ccccc5c5nncn45)cc3)=NN2)cc1 (configuration not stated)
- IC50 (HepG2 [25]): 16.1 µM

SMILES: Clc1ccc(-c2nc3ccccc3c3cc4cc(Cl)ccc4n23)cc1
- IC50 (A549 [9]): 30.7 µM

SMILES: O=C(NNc1nc2ccccc2c2nncn12)NC1CCCCC1
- IC50 (HepG2 [26]): 7.98 µM
- IC50 (DNA): 42.9 µM
- IC50 (HCT-116 [27]): 5.57 µM

SMILES: c1ccc(C2CC(c3ccc(Nc4nc5ccccc5c5nncn45)cc3)=NN2)cc1 (configuration not stated)
- IC50 (HepG2 [25]): 16.1 µM

SMILES: O=C(N/N=C/c1ccccc1Cl)c1ccc(Nc2nc3ccccc3c3nncn23)cc1
- IC50 (HCT-116 [10]): 5.21 µM
- IC50 (HepG2 [11]): 4.88 µM

SMILES: O=c1nc2c3cc(Cl)c(Br)cc3ncn2c(O)c1-c1ccccc1
- IC50 (MCF7 [18]): 3.44 µg/mL (≈ 8.54 µM)

SMILES: COc1ccc(C(=O)c2c(N)nn3c(NC(C)(C)CC(C)(C)C)nc4ccccc4c23)cc1
- IC50 (NCI-H1299 [28]): 2.04 µM
- IC50 (MDA-MB-231 [29]): 2.45 µM
- IC50 (A549 [30]): 1.74 µM

SMILES: Clc1ccc(-c2nc3ccccc3c3cc4ccccc4n23)cc1
- IC50 (A549 [9]): 30.7 µM

SMILES: c1ccc(Nc2ccccc2-c2nc3ccccc3c3nc(-c4ccccc4)nn23)cc1
- IC90 (MCF7 [31]): 137 µg/mL (≈ 332 µM)
- IC50 (HepG2 [32]): 33.3 µg/mL (≈ 80.5 µM)
- IC50 (MCF7 [33]): 87 µg/mL (≈ 210 µM)
- IC90 (HepG2 [34]): 59.9 µg/mL (≈ 145 µM)

SMILES: Cc1ccc2c(c1)cc1c3ccccc3nc(-c3ccccc3)n21
- IC50 (A549 [9]): 30.7 µM

SMILES: CC(C)(C)CC(C)(C)Nc1nc2ccccc2c2c(C(=O)c3ccc(F)cc3)c(N)nn12
- IC50 (NCI-H1299 [28]): 1.32 µM
- IC50 (MDA-MB-231 [29]): 1.93 µM
- IC50 (NCI-H1299 [35]): < 2.5 µM
- IC50 (cells): < 2.5 µM
- IC50 (A549 [30]): 1.06 µM

SMILES: S=C(NNc1nc2ccccc2c2nncn12)NC1CCCCC1
- IC50 (DNA): 48.1 µM

SMILES: COC(=O)c1nn2c(NC(C)(C)C)nc3cc(Cl)ccc3c2c1C(=O)OC
- IC50 (HCT-116 [36]): 2.3 µM
- IC50 (A549 [37]): 1.1 µM
- IC50 (U-87 MG): 2.6 µM

SMILES: O=C(N/N=C/c1ccc(Cl)cc1)c1ccc(Nc2nc3ccccc3c3nncn23)cc1
- IC50 (HCT-116 [10]): 11 µM
- IC50 (HepG2 [11]): 8.64 µM

SMILES: Cc1ccc2nc(-c3ccccc3)n3c4ccccc4cc3c2c1
- IC50 (A549 [9]): 30.7 µM

SMILES: Cc1ccc(C2CC(c3ccc(Nc4nc5ccccc5c5nncn45)cc3)=NN2)cc1 (configuration not stated)
- IC50 (HepG2 [25]): 16.1 µM

SMILES: c1ccc(-c2nc3ccccc3c3cc4ccccc4n23)cc1
- IC50 (A549 [9]): 30.7 µM

SMILES: COc1ccc(-c2nc3ccccc3c3cc4cc(Cl)ccc4n23)cc1
- IC50 (A549 [9]): 30.7 µM

SMILES: Cc1nc2ccccc2c2cc3ccccc3n12
- IC50 (A549 [9]): 30.7 µM

SMILES: CC(C)(C)CC(C)(C)Nc1nc2ccccc2c2c(C#N)c(N)nn12
- IC50 (NCI-H1299 [28]): 2.02 µM
- IC50 (MDA-MB-231 [29]): 1.96 µM
- IC50 (NCI-H1299 [35]): < 2.5 µM
- IC50 (cells): < 2.5 µM

SMILES: CCCc1nc2ccccc2c2nc3ccccc3n12
- IC50 [7]: 0.78 µg/mL (≈ 2.98 µM)
- IC50 [8]: 0.78 µg/mL (≈ 2.98 µM)

SMILES: COc1cccc2c1C(=O)c1c(O)c3c(c(O)c1C2=O)C[C@@](O)(C(=O)CO)C[C@@H]3O[C@H]1C[C@H](N)[C@H](O)[C@H](C)O1 [DOXORUBICIN]
- IC50 (DNA): 31.3 µM
- IC50 (HepG2 [25]): 7.94 µM
- IC50 (HCT-116 [23]): 9.63 µM
